Measured values: ChEMBL document CHEMBL3351248, “The discovery of potent, selective, and reversible inhibitors of the house dust mite peptidase allergen Der p 1: an innovative approach to the treatment of allergic asthma” (J Med Chem, 2014)
Calls of active or inactive are those of the source. No cut-off for these calls is given here.

Assays:
[1] = Metabolic stability in rat NR8383 cells after 2 hrs by LC-MS-MS analysis; format: ADME, cell-based; settings: nr8383, 2 h
[2] = Metabolic stability in rat L2 cells after 2 hrs by LC-MS-MS analysis; format: ADME, cell-based; settings: l2, 2 h
[3] = tested on: Rattus norvegicus; assay: Inhibition of house dust mites allergan-induced eosinophil recruitment in Brown Norway rat model at 25 to 35 ug/kg administered via intratracheal aerosolization 2 hrs prior to allergan challenge measured after 48 hrs by bronchoalveolar lavage method; format: functional, organism-based; settings: Lung

| SMILES | Stability [1] | Stability [2] | inhibition [3] |
| --- | --- | --- | --- |
| CC(C)[C@H](NC(=O)[C@H](C)NC(=O)[C@@H](NC(=O)c1ccncc1)C(C)(C)C)C(=O)C(=O)NC1CCCCC1 | Stable | Stable | Active |
| CC(C)[C@H](NC(=O)[C@H](C)NC(=O)[C@@H](NC(=O)c1ccccc1)C(C)(C)C)C(=O)C(=O)NCc1ccccc1 | Stable | Stable |  |
| CC(C)[C@H](NC(=O)[C@H](C)NC(=O)[C@@H](NC(=O)C1CC[N+](C)(C)CC1)C(C)(C)C)C(=O)C(=O)NCc1ccccc1.O=C[O-] | Stable | Stable |  |
| CC(C)[C@H](NC(=O)[C@H](C)NC(=O)[C@H](Cc1ccccc1)NC(=O)c1ccccc1)C(=O)C(=O)NCC(=O)N1CCOCC1 | Stable | Stable | Active |
| CC(C)[C@H](NC(=O)[C@H](C)NC(=O)[C@@H](NC(=O)c1ccnc2ccccc12)C(C)(C)C)C(=O)C(=O)NCc1ccccc1 | Stable | Stable | Active |
| CC(C)[C@H](NC(=O)[C@H](C)NC(=O)[C@H](Cc1ccccc1)NC(=O)c1ccccc1)C(=O)C(=O)NCC(=O)N1CCN(C)CC1 | Stable | Stable | Active |
| CC(C)[C@H](NC(=O)[C@H](C)NC(=O)[C@H](Cc1ccccc1)NC(=O)c1ccccc1)C(=O)C(=O)NCC(=O)N1CC[N+](C)(C)CC1.O=C[O-] | Stable | Stable |  |
| CC(C)[C@H](NC(=O)[C@H](C)NC(=O)[C@H](Cc1ccccc1)NC(=O)c1cccc2ccccc12)C(=O)C(=O)NCC(=O)N1CCN(C)CC1 | Stable | Stable | Active |
